Here are results for 35 compounds from patent publication US8686044B2, “Amide derivative, pest control agent containing the amide derivative, and use of the amide derivative” (Mitsui Chemicals Agro, Inc., priority 2008, dated 2014).

Each structure is given as a SMILES string.

What all share (assay type): in vivo
The subject of one assay is Spodoptera litura. Put plainly: Pesticidal test against Spodoptera litura (cabbage leaf dip). The following applies: foliar, 144 h, 2-stage larvae, examined after 6 days, 25° C., read-out: pesticidal rate; for pest or weed control at 1 ppm: concentration 1 ppm; for pest or weed control at 10 ppm: concentration 10 ppm. How it is done:
(§1) Pesticidal Test against Spodoptera litura A piece of a cabbage leaf was immersed for 30 seconds in a chemical solution in which a test compound had been prepared at a predetermined concentration, and air-dried, and then put into a 7 cm polyethylene cup having a filter paper laid on the bottom thereof, and 2-stage larvae of Spodoptera litura were released. They were left to stand in a thermostatic chamber at 25° C., and the numbers of the living pests and the dead pests were examined after 6 days. The test was carried out with five larvae per group in two replicates. Further, the following compound (A) disclosed in the pamphlet of International Publication WO 2005/073165 was used as a comparative compound.

For a further assay, the system named is Plutella xylostella. Nature of the assay: Pesticidal test against Plutella xylostella (cabbage leaf dip). The following applies: foliar, 144 h, 2-stage larvae, examined after 6 days, 25° C., read-out: pesticidal rate; for pest or weed control at 1 ppm: concentration 1 ppm; for pest or weed control at 10 ppm: concentration 10 ppm. As for the experimental part:
as §1, with “Plutella xylostella” for “Spodoptera litura”, “above” for “following”, “(A)” for “(A) disclosed in the pamphlet of International Publication WO 2005/073165”

The test system of a further assay is Laodelphax striatellus. Put plainly: Pesticidal test against Laodelphax striatellus (rice seedling spray). The following applies: 144 h, concentration 100 ppm, 3-stage larvae, examined after 6 days, 25° C., read-out: pesticidal rate. How it is done:
Pesticidal Test against Laodelphax striatellus
2.5 ml of an acetone solution in which a test compound had been prepared at a predetermined concentration was sprayed on rice seedlings, air-dried, and then put into a glass tube having a diameter of 3 cm and a height of 13 cm, having water therein, and 3-stage larvae of Laodelphax striatellus were released and the tube was capped. They were left to stand in a thermostatic chamber at 25° C., and the numbers of the living pests and the dead pests were examined after 6 days. The test was carried out with ten larvae per group in two replicates.

Consider `N#Cc1ccc(C(=O)Nc2cc(C(=O)Nc3c(Cl)cc(C(F)(C(F)(F)F)C(F)(F)F)cc3C(F)(F)F)ccc2C#N)cc1` [1-491], for which the pest or weed control at 1 ppm in the assay on Spodoptera litura and in the assay on Plutella xylostella was at least 70% each time. Moreover, the pest or weed control at 100 ppm in the assay with Laodelphax striatellus is at least 70%.

As for `N#Cc1ccc(C(=O)Nc2c(Br)cc(C(F)(C(F)(F)F)C(F)(F)F)cc2C(F)(F)F)cc1NC(=O)c1ccccc1` [1-627, 3-benzamide-N-(2-bromo-4-(perfluoropropan-2-yl)-6-(trifluoromethyl)phenyl)-4-cyanobenzamide], the pest or weed control at 1 ppm with Spodoptera litura and in the assay with Plutella xylostella was at least 70% in each case. Besides, the pest or weed control at 100 ppm in the assay on Laodelphax striatellus is at least 70%.

Consider `CN(C(=O)c1ccc(C#N)cc1)c1cc(C(=O)Nc2c(Cl)cc(C(F)(C(F)(F)F)C(F)(F)F)cc2C(F)(F)F)ccc1C#N` [2-491, N-(2-chloro-4-(perfluoropropan-2-yl)-6-(trifluoromethyl)phenyl)-4-cyano-3-(4-cyano-N-methylbenzamide)benzamide], for which the pest or weed control at 1 ppm with Spodoptera litura and in the assay on Plutella xylostella was at least 70% in each case. For the same compound, the pest or weed control at 100 ppm in the assay with Laodelphax striatellus is at least 70%.

On to `N#Cc1cccc(C(=O)Nc2cccc(C(=O)Nc3c(Br)cc(C(F)(C(F)(F)F)C(F)(F)C(F)(F)F)cc3Br)c2)c1` (stereo not shown) [6-45], for which the pest or weed control at 1 ppm in the assay on Spodoptera litura and in the assay with Plutella xylostella was at least 70% in each case. Further, the pest or weed control at 100 ppm in the assay with Laodelphax striatellus is at least 70%.

As for `O=C(Nc1c(Br)cc(C(F)(C(F)(F)F)C(F)(F)C(F)(F)F)cc1Br)c1cccc(NC(=O)c2cccnc2Cl)c1` (stereo not shown) [6-57], the pest or weed control at 1 ppm in the assay on Spodoptera litura and in the assay on Plutella xylostella was at least 70% throughout. Besides, the pest or weed control at 100 ppm in the assay on Laodelphax striatellus was at least 70%.

Turning to `O=C(Nc1cccc(C(=O)Nc2c(I)cc(C(F)(C(F)(F)F)C(F)(F)C(F)(F)F)cc2I)c1)c1ccccc1` (stereo not shown) [6-71], the pest or weed control at 1 ppm with Spodoptera litura and with Plutella xylostella was at least 70% in each case. Further, in the assay with Laodelphax striatellus, the pest or weed control at 100 ppm is at least 70%.

With `CN(C(=O)c1ccccc1)c1cccc(C(=O)Nc2c(I)cc(C(F)(C(F)(F)F)C(F)(F)C(F)(F)F)cc2I)c1` (stereo not shown) [7-71], the pest or weed control at 1 ppm in the assay on Spodoptera litura and with Plutella xylostella was at least 70% each time.

With `CN(C(=O)c1ccccc1F)c1cccc(C(=O)Nc2c(I)cc(C(F)(C(F)(F)F)C(F)(F)C(F)(F)F)cc2I)c1` (stereo not shown) [7-72], the pest or weed control at 1 ppm with Spodoptera litura and in the assay on Plutella xylostella was at least 70% throughout.

For the compound `CN(C(=O)c1cccc(C#N)c1)c1cccc(C(=O)Nc2c(I)cc(C(F)(C(F)(F)F)C(F)(F)C(F)(F)F)cc2I)c1` (stereo not shown) [7-78], the pest or weed control at 1 ppm in the assay with Spodoptera litura and with Plutella xylostella was at least 70% in each case.

As to `CN(C(=O)c1ccc(C#N)cc1)c1cccc(C(=O)Nc2c(I)cc(C(F)(C(F)(F)F)C(F)(F)C(F)(F)F)cc2I)c1` (stereo not shown) [7-79], the pest or weed control at 1 ppm with Spodoptera litura and in the assay on Plutella xylostella was at least 70% in each case.

Regarding `CN(C(=O)c1c(F)cccc1F)c1cccc(C(=O)Nc2c(I)cc(C(F)(C(F)(F)F)C(F)(F)C(F)(F)F)cc2I)c1` (stereo not shown) [7-80], the pest or weed control at 1 ppm in the assay with Spodoptera litura and in the assay on Plutella xylostella was at least 70% in each case.

With `CN(C(=O)c1ccc(Cl)nc1)c1cccc(C(=O)Nc2c(I)cc(C(F)(C(F)(F)F)C(F)(F)C(F)(F)F)cc2I)c1` (stereo not shown) [7-93], the pest or weed control at 1 ppm with Spodoptera litura and in the assay with Plutella xylostella was at least 70% in each case.

With `CN(C(=O)c1ccc(C#N)cc1)c1cccc(C(=O)Nc2c(Cl)cc(C(F)(C(F)(F)F)C(F)(F)F)cc2C(F)(F)F)c1` [7-132], the pest or weed control at 1 ppm in the assay with Spodoptera litura and with Plutella xylostella was at least 70% throughout.

Regarding `CN(C(=O)c1cccnc1Cl)c1cccc(C(=O)Nc2c(Cl)cc(C(F)(C(F)(F)F)C(F)(F)F)cc2C(F)(F)F)c1` [7-147], the pest or weed control at 1 ppm in the assay on Spodoptera litura and with Plutella xylostella was at least 70% throughout.

As to `CN(C(=O)c1ccccc1F)c1cccc(C(=O)Nc2c(Br)cc(C(F)(C(F)(F)F)C(F)(F)F)cc2C(F)(F)F)c1` [7-269], the pest or weed control at 1 ppm with Spodoptera litura was at least 70%. For the same compound, the pest or weed control at 10 ppm in the assay with Plutella xylostella was at least 70%.

With `CN(C(=O)c1cccc(F)c1)c1cccc(C(=O)Nc2c(Br)cc(C(F)(C(F)(F)F)C(F)(F)F)cc2C(F)(F)F)c1` [7-270], in the assay on Spodoptera litura, the pest or weed control at 1 ppm was at least 70%. Further, in the assay with Plutella xylostella, the pest or weed control at 10 ppm was at least 70%.

Consider `CN(C(=O)c1ccc(F)cc1)c1cccc(C(=O)Nc2c(Br)cc(C(F)(C(F)(F)F)C(F)(F)F)cc2C(F)(F)F)c1` [7-271], for which the pest or weed control at 1 ppm with Spodoptera litura and in the assay with Plutella xylostella was at least 70% throughout.

As for `CN(C(=O)c1c(F)cccc1F)c1cccc(C(=O)Nc2c(Br)cc(C(F)(C(F)(F)F)C(F)(F)F)cc2C(F)(F)F)c1` [7-290], the pest or weed control at 1 ppm in the assay on Spodoptera litura and with Plutella xylostella was at least 70% in each case.

On to `CN(C(=O)c1cc(C#N)cc(C#N)c1)c1cccc(C(=O)Nc2c(Br)cc(C(F)(C(F)(F)F)C(F)(F)F)cc2C(F)(F)F)c1` [7-299], for which the pest or weed control at 1 ppm with Spodoptera litura and with Plutella xylostella was at least 70% throughout.

For the compound `CN(C(=O)c1ccc(C#N)cc1F)c1cccc(C(=O)Nc2c(Br)cc(C(F)(C(F)(F)F)C(F)(F)F)cc2C(F)(F)F)c1` [7-300], the pest or weed control at 1 ppm in the assay on Spodoptera litura and in the assay on Plutella xylostella was at least 70% each time.

With `CN(C(=O)c1ccccc1F)c1cccc(C(=O)Nc2c(I)cc(C(F)(C(F)(F)F)C(F)(F)F)cc2C(F)(F)F)c1` [7-425], the pest or weed control at 1 ppm in the assay with Spodoptera litura and in the assay on Plutella xylostella was at least 70% each time.

`CN(C(=O)c1ccccc1)c1cccc(C(=O)Nc2c(C(F)(F)F)cc(C(F)(C(F)(F)F)C(F)(F)F)cc2C(F)(F)F)c1` [7-804]: the pest or weed control at 1 ppm in the assay with Spodoptera litura was at least 70%. In addition, the pest or weed control at 10 ppm in the assay on Plutella xylostella was at least 70%.

For the compound `CN(C(=O)c1cccc(C#N)c1)c1cccc(C(=O)Nc2c(C(F)(F)F)cc(C(F)(C(F)(F)F)C(F)(F)F)cc2C(F)(F)F)c1` [7-824], the pest or weed control at 1 ppm in the assay on Spodoptera litura and with Plutella xylostella was at least 70% each time.

Consider `CN(C(=O)c1ccc(C#N)cc1)c1cccc(C(=O)Nc2c(Cl)cc(C(F)(C(F)(F)F)C(F)(F)F)cc2Cl)c1F` [7-969], for which the pest or weed control at 1 ppm in the assay on Spodoptera litura and in the assay with Plutella xylostella was at least 70% in each case.

For `CN(C(=O)c1cccnc1Cl)c1cc(C(=O)Nc2c(Br)cc(C(F)(C(F)(F)F)C(F)(F)F)cc2C(F)(F)F)ccc1F` [7-3384], the pest or weed control at 1 ppm with Spodoptera litura and with Plutella xylostella was at least 70% throughout.

Take `CN(C(=O)c1ccc(F)cc1)c1cccc(C(=O)Nc2c(I)cc(C(F)(C(F)(F)F)C(F)(F)C(F)(F)F)cc2I)c1` (stereo not shown) [7-5905]: the pest or weed control at 1 ppm in the assay with Spodoptera litura and in the assay on Plutella xylostella was at least 70% each time.

On to `CN(C(=O)c1ccc(S(C)(=O)=O)cc1)c1cccc(C(=O)Nc2c(Br)cc(C(F)(C(F)(F)F)C(F)(F)F)cc2C(F)(F)F)c1` [7-5908], for which the pest or weed control at 10 ppm with Spodoptera litura and in the assay on Plutella xylostella was at least 70% in each case.

With `COC(=O)c1cc(C#N)cc(C(=O)N(C)c2cccc(C(=O)Nc3c(Br)cc(C(F)(C(F)(F)F)C(F)(F)F)cc3C(F)(F)F)c2F)c1` [7-5910], the pest or weed control at 1 ppm in the assay on Spodoptera litura and in the assay on Plutella xylostella was at least 70% throughout.

As to `CN(C(=O)c1ccccc1)c1cccc(C(=O)Nc2c(Br)cc(C(F)(F)C(F)(F)F)cc2C(F)(F)F)c1` [7-5911], the pest or weed control at 10 ppm in the assay on Spodoptera litura and in the assay on Plutella xylostella was at least 70% in each case.

On to `CN(C(=O)c1cccc(NC(=O)c2ccccc2)c1)c1c(Br)cc(C(F)(C(F)(F)F)C(F)(F)F)cc1C(F)(F)F` [8-268], for which the pest or weed control at 1 ppm with Spodoptera litura and in the assay with Plutella xylostella was at least 70% each time.

For `CN(C(=O)c1cccc(NC(=O)c2cccc(C#N)c2)c1)c1c(Br)cc(C(F)(C(F)(F)F)C(F)(F)F)cc1C(F)(F)F` [8-288], the pest or weed control at 1 ppm in the assay on Spodoptera litura and in the assay with Plutella xylostella was at least 70% throughout.

Turning to `CN(C(=O)c1cccc(NC(=O)c2ccccc2)c1)c1c(C(F)(F)F)cc(C(F)(C(F)(F)F)C(F)(F)F)cc1C(F)(F)F` [8-804], the pest or weed control at 1 ppm in the assay on Spodoptera litura was at least 70%. Also, in the assay on Plutella xylostella, the pest or weed control at 10 ppm was at least 70%.

With `CN(C(=O)c1cccc(NC(=O)c2cccc(C#N)c2)c1)c1c(C(F)(F)F)cc(C(F)(C(F)(F)F)C(F)(F)F)cc1C(F)(F)F` [8-824], the pest or weed control at 1 ppm in the assay on Spodoptera litura and in the assay with Plutella xylostella was at least 70% in each case.

For the compound `CN(C(=O)c1ccccc1F)c1nc(C(=O)Nc2c(Br)cc(C(F)(C(F)(F)F)C(F)(F)F)cc2C(F)(F)F)cs1` [27-628, N-(2-bromo-4-(perfluoropropan-2-yl)-6-(trifluoromethyl)phenyl)-2-(2-fluoro-N-methylbenzamide)thiazole-4-carboxamide], the pest or weed control at 10 ppm with Spodoptera litura and with Plutella xylostella was at least 70% each time.

On to `CN(C(=O)c1cccnc1Cl)c1nc(C(=O)Nc2c(Br)cc(C(F)(C(F)(F)F)C(F)(F)F)cc2C(F)(F)F)cs1` [27-663], for which the pest or weed control at 1 ppm in the assay with Spodoptera litura was at least 70%. Also, in the assay on Plutella xylostella, the pest or weed control at 10 ppm is at least 70%.
